Test results taken from paper PMC11676762, “Control of Postharvest Green Mold in Citrus by the Antimicrobial Peptide BP15 and Its Lipopeptides” (Journal of Fungi, 2024).
Values after ≈ are worked out from the molar mass of the structure shown. Values joined by “and” are separate entries in the source; they are usually repeats but may differ in a detail not shown here. Equal values may be shown once. Read-outs that look alike come from different tables or passages of the source. Marks after values point to notes of the source that are not given here.

Experiments:
P. digitatum [1] = conditions: against P. digitatum; cited from earlier work
Text: Conidia generated by P. digitatum are disseminated to the surface of fruits via wind, rain, soil dust, and other media. Upon landing on the surface or wound of the fruit, these conidia promptly germinate, leading to fruit decay. […] In the present s ...

P. digitatum mycelia [2] = test: Mycelial survival assay (MTT); type: cell-based, Penicillium digitatum; conditions: 100 μM peptide, 3 h at 25 °C, then MTT 16 h; mean of triplicate
Experimental: The mycelial survival rate was determined according to by Weerden et al.. A spore suspension (5 × 10^4 CFU/mL) was prepared with 5% PDB and incubated for 24 h at 25 °C. […] The mixtures were cultured at 25 °C for 3 h before the addition of 10 μL of 3-(4,5-dimethylthiazol-2-yl)-2,5-diphenyltetrazolium bromide (MTT; 5 mg/mL; MACKLIN). The plates were then incubated in a dark environment for 16 h, followed by the addition of DMSO (100 μL).

P. digitatum genomic DNA = test: DNA binding gel retardation assay; design: species or system Penicillium digitatum; conditions: peptide:DNA 1:1 (v/v), room temperature 30 min, 1% agarose gel
Experimental: In accordance with Miao et al. with slight adjustments, the gel retardation effect was analyzed. The P. digitatum DNA was extracted according to the operation steps of the TIANGEN plant genome DNA extraction kit. The agarose gel electrophoresis utilized a 1% agarose concentration. […] Electrophoresis was run at 110 V for 25 min, followed by the removal of the rubber plate and placement in the Tanon-2500B (Tanon Science and Technology Co., Ltd., Shanghai, China) for visualization.

sheep red blood cells = conditions: test range, significantly lower than commercial prochloraz (p < 0.05), results not yet published
P. digitatum [3] = conditions: for MFC: 50 μL from mycelium-free well plated on PDA, no pathogen growth; for MFC / MIC: 25 °C; for MIC: lowest peptide concentration completely inhibiting growth for 48 h, spores 1 × 10^4 CFU/mL, 5% PDB, triplicate
Experimental: The experiment was adapted from the method of Jia et al.. A 180 μL spore suspension (1 × 10^4 CFU/mL), containing 5% potato dextrose broth (PDB) by volume, was mixed with 20 μL of peptide solution in a sterile 96-well microplate and thoroughly mixed. The final peptide concentrations were 0.78, 1.56, 3.12, 6.25, 12.5, 25, 50, and 100 μM, with sterile water as the control. The mixtures were cultured in an incubator at 25 °C for 48 h, and the light absorption at OD600nm was measured using an 800TS full-wavelength microplate reader (Bio Tek Instruments, Inc., Winooski, VT, USA). The minimum inhibitory concentration (MIC) was defined as the lowest peptide concentration completely inhibiting fungus growth for 48 h. Then, a 50 μL sample from the mycelium-free well was plated on PDA and left to culture at 25 °C for 48 h. The minimum fungicidal concentration (MFC) was the peptide concentration at which there was no pathogen growth after 48 h.

P. digitatum [4] = test: Fruit decay test, green mold on mandarins; type: in vivo, Penicillium digitatum; conditions: mean ± SD
Text: This experiment followed the method of Zhou et al. with some adjustments. The effects of three peptides on the control of green mold in citrus in vivo were studied by measuring the incidence rate and spot diameters on the citrus fruit. Mandarins were purchased from a local supermarket and selected for uniform size, ripeness, and a lack of mechanical damage. The mandarins were soaked in 75% alcohol for 30 s and then in 1% NaClO for 30 s, followed by rinsing with sterile water and drying with sterile paper to remove excess surface water. A sterile needle was used to drill holes near the equator (about 3 mm deep), and each mandarin was inoculated with 10 µL of 100 μM concentrations of three peptide solutions and 1 × 10^5 CFU/mL P. digitatum suspension (v/v 1:1), compared with a mixture of equal parts sterile water and P. digitatum suspension. The mandarins were placed in a […] container with sterile wet paper towels in order to preserve their freshness. A humid environment was maintained in the container, and the fruit was stored at room temperature. The incidence rate and spot diameter of the mandarins were measured in accordance with the method of Zhang et al.. Each treatment group contained eight fruits, and each treatment was repeated three times.

P. digitatum mycelia [5] = test: Sytox Green fluorescence microscopy (membrane permeability); type: cell-based, Penicillium digitatum; conditions: 2 h, Sytox Green 0.2 μM
Experimental: The experiment protocol was adapted from Li et al.. A spore suspension (10^5 CFU/mL) of 90 μL was prepared with 5% PDB and incubated for 24 h at 25 °C. Subsequently, the peptide solution was added to final concentrations of the MIC, the MFC, and 100 μM, and the mixtures were left for 2 h, with sterile water as the control. After incubation, Sytox Green (Molecular Probes; KeyGen Biotech Co., Nanjing, China) was added at 4 μM and thte final concentration was 0.2 μM and was incubated for 5 min in the dark. The treated samples were washed with sterile water, resuspended in 20% glycerol solution, and prepared and observed under a DM3000 fluorescence microscope (Leica, Weztlar, Germany).

[6] = 5 d, 100 μM peptide + spores (1:1), three replicates
[7] = 6 d, 100 μM peptide + spores (1:1), three replicates
[8] = 7 d, 100 μM peptide + spores (1:1), three replicates
[9] = 8 d, 100 μM peptide + spores (1:1), three replicates
[10] = 9 d, 100 μM peptide + spores (1:1), three replicates
[11] = 10 d, 100 μM peptide + spores (1:1), three replicates

Compound	mycelial survival rate (P. digitatum mycelia [2]) [%]	peptide concentration at which DNA bands were no longer visible (P. digitatum genomic DNA) [µM]	hemolytic activity (sheep red blood cells)	MFC (P. digitatum [3]; 48 h) [µM]	MIC (P. digitatum [3]; OD600nm) [µM]	Spot Diameter (P. digitatum [4]; [6])	Incidence Rate (P. digitatum [4]; [7])	Spot Diameter (P. digitatum [4]; [7])	Incidence Rate (P. digitatum [4]; [8])	Spot Diameter (P. digitatum [4]; [8])	Incidence Rate (P. digitatum [4]; [9])	Spot Diameter (P. digitatum [4]; [9])	Incidence Rate (P. digitatum [4]; [10])	Spot Diameter (P. digitatum [4]; [10])	Incidence Rate (P. digitatum [4]; [11])	Spot Diameter (P. digitatum [4]; [11])	SG fluorescence in mycelia (P. digitatum mycelia [5]; peptide at 100 μM)	SG fluorescence in mycelia (P. digitatum mycelia [5]; peptide at 2 MIC)	SG fluorescence in mycelia (P. digitatum mycelia [5]; peptide at MIC)	other results
GHRKKWFW [PAF56, synthetic short cationic antimicrobial peptide (GHRKKWFW), literature comparator]	–	–	–	–	–	–	–	–	–	–	–	–	–	–	–	–	–	–	–	MIC (P. digitatum [1]): 8 µM
CCCCCC(=O)N[C@@H](CCCCN)C(=O)N[C@@H](CCCCN)C(=O)N[C@@H](CC(C)C)C(=O)N[C@@H](Cc1ccccc1)C(=O)N[C@@H](CCCCN)C(=O)N[C@@H](CCCCN)C(=O)N[C@H](C(=O)N[C@@H](CC(C)C)C(=O)N[C@@H](CCCCN)C(=O)N[C@H](C(=O)N[C@@H](CC(C)C)C(N)=O)C(C)C)[C@@H](C)CC [HBP15]	16.31	25	low hemolysis	6.25 (≈ 9.09 µg/mL)	3.12 (≈ 4.54 µg/mL)	1.41 ± 0.80 ^c mm	20.83 ± 7.22 ^c %	4.45 ± 0.80 ^c mm	37.50 ± 0.00 ^c %	9.76 ± 0.84 ^c mm	37.50 ± 0.00 ^c %	14.81 ± 1.19 ^c mm	37.50 ± 0.00 ^c %	19.72 ± 1.95 ^c mm	41.67 ± 7.22 ^b %	23.27 ± 3.61 ^c mm	extensive continuous green fluorescence	enhanced fluorescence intensity and continuity	no fluorescence	Incidence Rate (P. digitatum [4]; 5 d, 10 µL of 100 μM peptide + 1 × 10^5 CFU/mL spores (1:1), room temperature, three replicates of eight fruits): 12.50 ± 0.00 ^c %
CC[C@H](C)[C@H](NC(=O)[C@H](CCCCN)NC(=O)[C@H](CCCCN)NC(=O)[C@H](Cc1ccccc1)NC(=O)[C@H](CC(C)C)NC(=O)[C@H](CCCCN)NC(=O)[C@@H](N)CCCCN)C(=O)N[C@@H](CC(C)C)C(=O)N[C@@H](CCCCN)C(=O)N[C@H](C(=O)N[C@@H](CC(C)C)C(N)=O)C(C)C [BP15]	–	–	low hemolysis	6.25 (≈ 8.48 µg/mL)	3.12 (≈ 4.23 µg/mL)	–	–	–	–	–	–	–	–	–	–	–	–	–	–	–
CCCCCCCCCCCC(=O)N[C@@H](CCCCN)C(=O)N[C@@H](CCCCN)C(=O)N[C@@H](CC(C)C)C(=O)N[C@@H](Cc1ccccc1)C(=O)N[C@@H](CCCCN)C(=O)N[C@@H](CCCCN)C(=O)N[C@H](C(=O)N[C@@H](CC(C)C)C(=O)N[C@@H](CCCCN)C(=O)N[C@H](C(=O)N[C@@H](CC(C)C)C(N)=O)C(C)C)[C@@H](C)CC [LBP15]	10.40	50	low hemolysis	6.25 (≈ 9.62 µg/mL)	3.12 (≈ 4.8 µg/mL)	10.80 ± 4.93 ^b mm	70.83 ± 19.09 ^b %	21.23 ± 4.46 ^b mm	80.83 ± 11.54 ^b %	34.00 ± 10.39 ^b mm	80.83 ± 11.54 ^b %	45.60 ± 13.19 ^b mm	80.83 ± 11.54 ^b %	54.08 ± 12.44 ^b mm	87.50% and 87.50 ± 0.00 ^a %	69.6 ± 8.37 ^b mm	extensive continuous green fluorescence	enhanced fluorescence intensity and continuity	weak green fluorescence	inhibitory effect on P. digitatum growth (P. digitatum [3]; at 0.78 and 1.56 μM, 48 h, OD600nm): No obvious inhibitory effect
